In patent US12037344B2, “NLRP3 modulators” (INNATE TUMOR IMMUNITY, INC., priority 2018, dated 2024) one finds EC50 data, which are given here for 17 molecules.

The target in test [1] is T1, TLR7 (Homo sapiens, UniProt Q9NYK1).
T1 construct: human HEK-Blue cells co-expressing a TLR7 or TLR8 gene
T1 sequence (Q9NYK1 27-1049): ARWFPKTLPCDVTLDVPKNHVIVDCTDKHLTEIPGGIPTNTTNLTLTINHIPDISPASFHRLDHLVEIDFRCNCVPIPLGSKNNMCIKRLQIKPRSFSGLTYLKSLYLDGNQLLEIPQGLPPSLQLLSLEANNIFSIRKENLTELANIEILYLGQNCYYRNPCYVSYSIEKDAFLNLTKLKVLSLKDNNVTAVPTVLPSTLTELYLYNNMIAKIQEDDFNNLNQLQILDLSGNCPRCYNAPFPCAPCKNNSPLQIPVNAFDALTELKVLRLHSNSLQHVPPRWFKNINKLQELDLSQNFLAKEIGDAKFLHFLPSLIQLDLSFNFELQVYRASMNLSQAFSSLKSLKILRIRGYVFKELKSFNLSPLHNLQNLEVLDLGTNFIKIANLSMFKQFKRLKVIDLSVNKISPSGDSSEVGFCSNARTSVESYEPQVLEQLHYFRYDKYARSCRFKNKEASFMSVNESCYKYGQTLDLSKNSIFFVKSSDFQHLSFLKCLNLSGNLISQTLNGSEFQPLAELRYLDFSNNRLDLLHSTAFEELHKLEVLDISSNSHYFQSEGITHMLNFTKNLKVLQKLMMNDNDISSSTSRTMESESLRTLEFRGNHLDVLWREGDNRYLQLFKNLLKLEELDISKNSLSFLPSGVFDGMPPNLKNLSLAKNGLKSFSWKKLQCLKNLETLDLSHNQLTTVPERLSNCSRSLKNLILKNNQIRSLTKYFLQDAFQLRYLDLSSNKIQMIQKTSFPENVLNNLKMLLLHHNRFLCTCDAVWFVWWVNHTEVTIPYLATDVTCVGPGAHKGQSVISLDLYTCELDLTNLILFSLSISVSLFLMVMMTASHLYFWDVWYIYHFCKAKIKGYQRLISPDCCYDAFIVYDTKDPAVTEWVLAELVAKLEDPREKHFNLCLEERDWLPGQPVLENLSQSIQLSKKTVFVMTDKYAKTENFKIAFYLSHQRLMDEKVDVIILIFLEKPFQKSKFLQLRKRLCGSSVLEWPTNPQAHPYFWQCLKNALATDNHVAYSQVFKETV
The experiment in a line: In vitro human TLR7 binding reporter assay (HEK-Blue, NF-kB/AP1-inducible SEAP). It counts as cell-based. Particulars: read-out: TLR7 Agonist EC50. Here is the method:
(§1) In Vitro Human TLR7 and TLR8 Binding Reporter Assays
(§2) Logarithmically-growing human HEK-Blue cells co-expressing a TLR7 or TLR8 gene and a NF-kB/AP1-inducible SEAP (secreted embryonic alkaline phosphatase; Invivogen, San Diego, CA) reporter gene are added to individual wells of a 384-well plate (15,000 cells per 20 μL per well) and maintained for 24 h at 37° C., 5% CO2. Test compounds or DMSO are distributed to separate wells the next day using acoustic liquid handling technology (100 nL per well) and cells are subsequently incubated for 18 h at 37° C., 5% CO2. Cellular SEAP production is measured using an Envision plate reader instrument thirty minutes after adding freshly-made Quanti-Blue reagent (prepared by following manufacturer instructions; Invivogen, San Diego, CA) to the HEK-Blue TLR Nf-kB-SEAP cell reactions. All EC50 values (half-maximal effective concentration) are determined using proprietary data analysis software. Normalized EC50 value=absolute value determined by setting 100% Ymax using a reference standard RLU (relative light unit) values from cells treated with 50 μM of the reference standard.
(In a reporter assay the amount or activity of a reporter protein is the signal.)

The test system of test [2] is THP-1 cells. The experiment in a line: Measurement of IL-1β production, hTRF protocol (second alternative procedure), THP-1 cells. It counts as cell-based, human. Particulars: Homo sapiens, THP-1, IL-1β production, read-out: NLRP3 hILIB EC50. Here is the method:
Measurement of IL-1β Production—hTRF Protocol (Second Alternative Procedure)
Serial dilutions of compounds in DMSO were added to low volume 384 well plates at 100 nl/well using an ECHO 550 acoustic dispenser (Labcyte) to achieve final starting concentration of 10 μM in assay.
THP-1 cells in RPMI (Gibco, 11875) media with 10% FBS at a density of 1×10^6 cell/ml in a T175 flask were treated with a final concentration of phorbol 12-myristate 13-acetate (PMA) (Sigma, P1585) of 50 ng/ml overnight at 37° C. at 5% CO2 for differentiation. Cells were harvested the next day after rinsing well with dPBS using 0.5% trypsin. A cell solution was prepared of 1×10^6 cells/ml for 50,000 cells in 50 μl/well in RPMI media with 2% FBS. Cells were plated using a multichannel pipette onto the compound dilutions in Greiner, 384 well, black clear bottom tissue culture treated plates (781090). The plates were incubated in 37° C. incubator at 5% CO2 for 2 hours.
After the 2 hour incubation, the cell plates were spun in the centrifuge for 5 minutes at 1200 rpm. Using the Felix (CyBio), 8 μl of the supernatant was transferred to 384 well, low volume, white proxy plates. (Perkin Elmer, 6008230). A human IL1beta hTRF kit was used to analyze the supernatant (CISBIO, 62HIL1BPEG). The kit instructions were followed for preparing the IL1Beta standard curve and then the antibodies from the kit were diluted 1:40 rather than 1:20 as kit instructed. Once combined, the antibodies were added across the plates, 5 μl/well. The plates were sealed and incubated at 4° C. overnight. The plates were then read on the Perkin Elmer EnVision at 665/615 nm using the hTRF laser.

Test [3] has as its target T2, TLR8 (Homo sapiens, UniProt Q9NR97).
T2 construct: human HEK-Blue cells co-expressing a TLR7 or TLR8 gene
T2 sequence (Q9NR97 27-1041): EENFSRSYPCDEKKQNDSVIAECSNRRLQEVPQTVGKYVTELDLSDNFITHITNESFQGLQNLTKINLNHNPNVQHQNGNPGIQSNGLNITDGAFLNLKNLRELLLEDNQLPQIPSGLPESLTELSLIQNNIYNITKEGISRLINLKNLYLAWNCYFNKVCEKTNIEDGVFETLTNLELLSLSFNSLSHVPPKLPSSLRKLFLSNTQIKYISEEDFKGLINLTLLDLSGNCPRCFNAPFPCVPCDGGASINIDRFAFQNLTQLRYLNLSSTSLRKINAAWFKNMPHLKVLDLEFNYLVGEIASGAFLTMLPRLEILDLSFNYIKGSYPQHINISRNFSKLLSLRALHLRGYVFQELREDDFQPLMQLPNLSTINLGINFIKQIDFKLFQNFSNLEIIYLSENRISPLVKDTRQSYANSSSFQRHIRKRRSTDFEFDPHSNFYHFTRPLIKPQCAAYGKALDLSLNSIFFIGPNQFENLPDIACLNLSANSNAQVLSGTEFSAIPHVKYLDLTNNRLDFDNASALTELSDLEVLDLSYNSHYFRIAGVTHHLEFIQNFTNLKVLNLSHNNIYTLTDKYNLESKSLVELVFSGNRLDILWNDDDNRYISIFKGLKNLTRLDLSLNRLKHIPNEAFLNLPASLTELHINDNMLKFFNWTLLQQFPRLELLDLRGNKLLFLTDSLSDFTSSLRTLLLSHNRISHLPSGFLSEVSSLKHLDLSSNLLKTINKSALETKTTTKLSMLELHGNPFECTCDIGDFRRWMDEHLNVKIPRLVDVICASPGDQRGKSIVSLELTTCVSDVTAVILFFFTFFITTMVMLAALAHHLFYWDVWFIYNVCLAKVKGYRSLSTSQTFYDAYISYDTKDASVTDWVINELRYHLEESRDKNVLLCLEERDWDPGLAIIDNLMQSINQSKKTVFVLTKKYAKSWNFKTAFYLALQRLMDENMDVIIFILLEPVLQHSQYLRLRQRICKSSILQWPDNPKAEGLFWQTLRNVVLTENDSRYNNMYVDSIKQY
Description: In vitro human TLR8 binding reporter assay (HEK-Blue, NF-kB/AP1-inducible SEAP). The format is cell-based. Particulars: read-out: TLR8 Agonist EC50. Here is the method:
as §1, §2

Structures can show the parent of a compound that is named as a salt. Where two headings read alike, the source gives them in different places.

In general, EC50 refers to the concentration giving half of the maximal effect. With `Nc1nc2cc(-c3cc[nH]n3)ccc2c2nn(Cc3cc(CO)no3)cc12` [Example 408], the EC50 was > 100 µM in test [1] (activity range), 1.94 µM in test [2] (human cells) and > 100 µM in test [3] (activity range).
With `CCN1CCCC1Cn1cc2c(N)nc3cc(-c4ccn[nH]4)ccc3c2n1` (centres unmarked) [Example 274], the EC50 in test [1] (activity range class) is > 100 µM; in test [2] (human), 0.6 µM; in test [3] (activity range class) it was > 100 µM.
As to `CC(C)(O)CCn1cc2c(n1)c(N)nc1cc(-c3ccn[nH]3)ccc12` [Example 452], the EC50 in test [1] (activity range) was > 100 µM; in test [2] (human cells) it was 0.4 µM; in test [3] (activity range), > 100 µM.
Consider `Nc1nc2cc(-c3cc[nH]n3)c(Cl)cc2c2cn(CCNC(=O)c3ccc(F)cn3)nc12` [Example 195, N-(2-(4-amino-8-chloro-7-(1H-pyrazol-3-yl)-2H-pyrazolo[3,4-c]quinolin-2-yl)ethyl)-5-fluoropicolinamide], for which the 50% effective concentration (EC50) in test [1] (activity range class) was > 100 µM; in test [2] (human), 2.15 µM; in test [3] (activity range class) it was 20 to 100 µM.
On to `CCS(=O)(=O)N[C@@H](C)Cn1cc2c(N)nc3cc(-c4cc[nH]n4)ccc3c2n1` [Example 465], for which the EC50 is > 100 µM in test [1] (activity range), 1.9 µM in test [2] (human cells) and > 100 µM in test [3] (activity range).
Take `N#CCCn1cc2c(N)nc3cc(-c4cc[nH]n4)ccc3c2n1` [Example 395]: the EC50 in test [1] (activity range) was > 100 µM; in test [2] (human cells), 0.07 µM; in test [3] (activity range), > 100 µM.
Consider `Nc1nc2cc(-c3cc[nH]n3)c(F)cc2c2nn(CCO)cc12` [Example 404], for which the EC50 in test [1] (activity range) was > 100 µM; in test [2] (human cells), 0.74 µM; in test [3] (activity range), > 100 µM.
In the case of `Nc1nc2cc(-c3cc[nH]n3)ccc2c2nn(CCc3c[nH]cn3)cc12` [Example 361], the EC50 in test [1] (activity range class) was > 100 µM; in test [2] (human) it was 0.19 µM; in test [3] (activity range class), > 100 µM.
For the molecule `N#C[C@H]1CCN(C(=O)Cn2cc3c(n2)c(N)nc2cc(-c4cc[nH]n4)ccc23)C1` [Example 540], the EC50 in test [1] (activity range) was > 100 µM; in test [2] (human cells) it was 3.13 µM; in test [3] (activity range) it was > 100 µM.
Take `CC(CC(=O)NCC(F)F)n1cc2c(N)nc3cc(-c4cc[nH]n4)ccc3c2n1` (centres unmarked) [Example 618]: the EC50 is > 100 µM in test [1] (activity range), 14.5 µM in test [2] (human cells) and > 100 µM in test [3] (activity range).
For `N#C[C@H]1CCN(C(=O)CCn2cc3c(N)nc4cc(-c5cc[nH]n5)ccc4c3n2)C1` [Example 516], the concentration for a half-maximal effect (EC50) in test [1] (activity range) was > 100 µM; in test [2] (human cells), 9.67 µM; in test [3] (activity range), > 100 µM.
`Nc1nc2cc(-c3cc[nH]n3)ccc2c2[nH]c(CNC(=O)c3ccc(F)cn3)cc12` [Example 418]: the concentration for a half-maximal effect (EC50) was > 100 µM in test [1] (activity range), 3.65 µM in test [2] (human cells) and > 100 µM in test [3] (activity range).
As to `CC(Cn1cc2c(N)nc3cc(-c4ccn[nH]4)ccc3c2n1)C(=O)N(C)C` (centres unmarked) [Example 488, 3-(4-amino-7-(1H-pyrazol-5-yl)-2H-pyrazolo[4,3-c]quinolin-2-yl)-N,N,2-trimethylpropanamide.TFA], the figures for the EC50 in test [1] (activity range), in test [2] (human cells) and in test [3] (activity range) were > 100 µM, 1.15 µM and > 100 µM, respectively.
As for `Nc1nc2cc(-c3cc[nH]n3)ccc2c2cc(CCCO)oc12` [Example 148, 3-[4-amino-7-(1H-pyrazol-3-yl)furo[2,3-c]quinolin-2-yl]propan-1-ol], the EC50 in test [2] (human) is 2.03 µM.
On to `Nc1nc2cc(-n3cccn3)ccc2c2cn(CCNC(=O)c3ccc(F)cn3)nc12` [Example 184], for which the EC50 in test [1] (activity range class) is > 100 µM; in test [2] (human), 0.1 µM.
For the molecule `NCCc1cc2c(N)nc3cc(-c4ccn[nH]4)ccc3c2[nH]1` [Example 152, 2-(2-aminoethyl)-7-(1H-pyrazol-5-yl)-1H-pyrrolo[3,2-c]quinolin-4-amine], the EC50 in test [2] (human) is 3.79 µM.
On the same count and under the same terms, for `Nc1nc2cc(-c3ccn[nH]3)ccc2c2oc(CCCOCc3ccccc3)nc12` [Example 146, 2-[3-(benzyloxy)propyl]-7-(1H-pyrazol-3-yl)-[1,3]oxazolo[4,5-c]quinolin-4-amine] the value was 7.94 µM.
